Assay results as given in patent US9809574B2, “Isoindoline or isoquinoline compounds, a process for their preparation and pharmaceutical compositions containing them” (LES LABORATOIRES SERVIER, priority 2013, dated 2017).
Structures can show the parent of a compound that is named as a salt. Where two headings read alike, the source gives them in different places.

Key:
Bcl-2 protein = Bcl-2 protein (histag-Bcl-2, UniProtKB P10415) (Homo sapiens (Human), UniProt P10415); assay: Inhibition of Bcl-2 by the fluorescence polarisation technique; type: binding
Excerpt: For partial inhibitors, the percentage fluorescence polarisation inhibition for a given concentration of the test compound is indicated.

[1] = tested on: RS4; 11 leukaemia cell line; assay: In vitro cytotoxicity, Microculture Tetrazolium Assay (MTT); type: cell-based; settings: 11 cells exposed for 48 hours
Experimental: The cytotoxicity studies were carried out on the RS4; 11 leukaemia cell line and on H146 small Cell Lung Carcinoma cell line. The cells are distributed onto microplates and exposed to the test compounds for 48 hours. The cell viability is then quantified by a colorimetric assay, the Microculture Tetrazolium Assay (Cancer Res., 1987, 47, 939-942).

[2] = fluorescence polarisation test, incubation for 2 hours, read-out: IC50 (nM) Bcl-2 FP

Chain of Bcl-2 protein (P10415 whole entry): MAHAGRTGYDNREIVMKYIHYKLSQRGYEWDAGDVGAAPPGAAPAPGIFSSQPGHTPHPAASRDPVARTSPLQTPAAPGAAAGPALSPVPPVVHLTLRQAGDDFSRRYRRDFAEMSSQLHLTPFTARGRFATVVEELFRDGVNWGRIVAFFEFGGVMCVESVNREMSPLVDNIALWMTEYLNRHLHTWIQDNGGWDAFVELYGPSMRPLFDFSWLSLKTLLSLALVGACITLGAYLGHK

Structure (SMILES) | IC50 (Bcl-2 protein; [2]) | IC50 ([1]; Homo sapiens) | IC50 (Bcl-2 protein) | IC50 [1]
CCS(=O)(=O)N1Cc2cc(C(=O)N3Cc4ccccc4C[C@H]3CN3CCOCC3)c(-c3cc(C(=O)N(C)c4ccc(O)cc4)c4n3CCCC4)cc2C1 [Example 18, 3-[2-(Ethanesulfonyl)-6-[(3S)-3-(morpholin-4-ylmethyl)-1,2,3,4-tetrahydroisoquinoline-2-carbonyl]-2,3-dihydro-1H-isoindol-5-yl]-N-(4-hydroxyphenyl)-N-methyl-5,6,7,8-tetrahydroindolizine-1-carboxamide hydrochloride] | 38 nM | 1290 nM |  | 
C[C@@H]1Cc2ccccc2CN1C(=O)c1cc2c(cc1-c1cc(C(=O)N(C)c3ccc(O)cc3)c3n1CCCC3)CCN(C(=O)CCc1ccccc1)C2 [Example 37, N-(4-Hydroxyphenyl)-N-methyl-3-{7-[(3R)-3-methyl-1,2,3,4-tetrahydroisoquinoline-2-carbonyl]-2-(3-phenylpropanoyl)-1,2,3,4-tetrahydroisoquinolin-6-yl}-5,6,7,8-tetrahydroindolizine-1-carboxamide] | 4.9 nM | 18 nM |  | 
Cc1c(C(=O)N(C)c2ccc(O)cc2)cc(-c2cc3c(cc2C(=O)N2Cc4ccccc4C[C@H]2CN2CCOCC2)CN(C(=O)Oc2cnc4[nH]ccc4c2)CC3)n1C [Example 579, 1H-Pyrrolo[2,3-b]pyridin-5-yl 6-{4-[(4-hydroxyphenyl)(methyl)carbamoyl]-1,5-dimethyl-1H-pyrrol-2-yl}-7-[(3S)-3-(morpholin-4-ylmethyl)-1,2,3,4-tetrahydroisoquinoline-2-carbonyl]-1,2,3,4-tetrahydroisoquinoline-2-carboxylate] |  | 17 nM | 4.4 nM | 
Cc1ccc(OC(=O)N2CCc3cc(-c4cc(C(=O)N(C)c5ccc(O)cc5)c5n4CCCC5)c(C(=O)N4Cc5ccccc5C[C@H]4CN4CCOCC4)cc3C2)cc1 [Example 98, 4-Methylphenyl 6-{1-[(4-hydroxyphenyl)(methyl)carbamoyl]-5,6,7,8-tetrahydroindolizin-3-yl}-7-[(3S)-3-(morpholin-4-ylmethyl)-1,2,3,4-tetrahydroisoquinoline-2-carbonyl]-1,2,3,4-tetrahydroisoquinoline-2-carboxylate hydrochloride] | 3.8 nM | 1.8 nM |  | 
C[C@@H]1Cc2ccccc2CN1C(=O)c1cc2c(cc1-c1cc(C(=O)N(C)c3ccc(O)cc3)c3n1CCCC3)CCN(S(=O)(=O)c1ccccc1)C2 [Example 39, 3-[2-(Benzenesulfonyl)-7-[(3R)-3-methyl-1,2,3,4-tetrahydroisoquinoline-2-carbonyl]-1,2,3,4-tetrahydroisoquinolin-6-yl]-N-(4-hydroxyphenyl)-N-methyl-5,6,7,8-tetrahydroindolizine-1-carboxamide] | 14 nM | 106 nM |  | 
Cc1c(C(=O)N(C)c2ccc(O)cc2)cc(-c2cc3c(cc2C(=O)N2Cc4ccccc4C[C@H]2C)CN(C(=O)OC2CCC(NC(=O)OC(C)(C)C)CC2)CC3)n1C (stereo partly drawn) [Example 800, (1r,4r)-4-{[(tert-Butoxy)carbonyl]amino}cyclohexyl 6-{4-[(4-hydroxyphenyl)(methyl)carbamoyl]-1,5-dimethyl-1H-pyrrol-2-yl}-7-[(3R)-3-methyl-1,2,3,4-tetrahydroisoquinoline-2-carbonyl]-1,2,3,4-tetrahydroisoquinoline-2-carboxylate] | 2 nM |  |  | 3.2 nM

Second part, led by results:

IC50 (Bcl-2 protein; [2]) | Structure (SMILES) | IC50 ([1]; Homo sapiens) | IC50 (Bcl-2 protein) | IC50 [1]
4.2 nM | Cc1c(C(=O)N(C)c2ccc(O)cc2)cc(-c2cc3c(cc2C(=O)N2Cc4ccccc4C[C@H]2C)CN(C(=O)[C@H](O)c2ccccc2)C3)n1C [Example 175, N-(4-Hydroxyphenyl)-5-(2-[(2R)-2-hydroxy-2-phenylacetyl]-6-{[(3R)-3-methyl-3,4-dihydroisoquinolin-2(1H)-yl]carbonyl}-2,3-dihydro-1H-isoindol-5-yl)-N,1,2-trimethyl-1H-pyrrole-3-carboxamide] | 90 nM |  | 
42 nM | CC(=O)N1Cc2cc(C(=O)N3Cc4ccccc4C[C@H]3C)c(-c3cc(C(=O)N(C)c4ccc(O)cc4)c(C)n3C)cc2C1 [Example 112, 5-{2-Acetyl-6-[(3R)-3-methyl-1,2,3,4-tetrahydroisoquinoline-2-carbonyl]-2,3-dihydro-1H-isoindol-5-yl}-N-(4-hydroxyphenyl)-N,1,2-trimethyl-1H-pyrrole-3-carboxamide] | 394 nM |  | 
16 nM | C[C@@H]1Cc2ccccc2CN1C(=O)c1cc2c(cc1-c1cc(C(=O)N(C)c3ccc(O)cc3)c3n1CCCC3)CN(C(=O)N1CCC(c3ccccc3)C1)C2 (stereo partly drawn) [Example 66, N-(4-Hydroxyphenyl)-N-methyl-3-{6-[(3R)-3-methyl-1,2,3,4-tetrahydroisoquinoline-2-carbonyl]-2-(3-phenylpyrrolidine-1-carbonyl)-2,3-dihydro-1H-isoindol-5-yl}-5,6,7,8-tetrahydroindolizine-1-carboxamide] | 80 nM |  | 
5 nM | Cc1c(C(=O)N(C)c2ccccc2)cc(-c2cc3c(cc2C(=O)N2Cc4ccccc4C[C@H]2C)CN(C(=O)Oc2cccc(CCC(=O)N(C)C)c2)CC3)n1C [Example 787, 3-[2-(Dimethylcarbamoyl)ethyl]phenyl 6-{1,5-dimethyl-4-[methyl(phenyl)carbamoyl]-1H-pyrrol-2-yl}-7-[(3R)-3-methyl-1,2,3,4-tetrahydroisoquinoline-2-carbonyl]-1,2,3,4-tetrahydroisoquinoline-2-carboxylate] | 6.2 nM |  | 
26 nM | C[C@@H]1Cc2ccccc2CN1C(=O)c1cc2c(cc1-c1cc(C(=O)N(C)c3ccc(O)cc3)c3n1CCCC3)CCN(S(=O)(=O)c1ccc3ccccc3c1)C2 [Example 41, N-(4-Hydroxyphenyl)-N-methyl-3-{7-[(3R)-3-methyl-1,2,3,4-tetrahydroisoquinoline-2-carbonyl]-2-(naphthalene-2-sulfonyl)-1,2,3,4-tetrahydroisoquinolin-6-yl}-5,6,7,8-tetrahydroindolizine-1-carboxamide] | 78 nM |  | 
12 nM | C[C@@H]1Cc2ccccc2CN1C(=O)c1cc2c(cc1-c1cc(C(=O)N(C)c3ccc(O)cc3)c3n1CCCC3)CCN(C(=O)OC(C)(C)C)C2 [Example 47, tert-Butyl 6-{1-[(4-hydroxyphenyl)(methyl)carbamoyl]-5,6,7,8-tetrahydroindolizin-3-yl}-7-[(3R)-3-methyl-1,2,3,4-tetrahydroisoquinoline-2-carbonyl]-1,2,3,4-tetrahydroisoquinoline-2-carboxylate] | 45 nM |  | 
5.1 nM | C[C@@H]1Cc2ccccc2CN1C(=O)c1cc2c(cc1-c1cc(C(=O)N(C)c3ccc(O)cc3)c3n1CCCC3)CCN(C(=O)OCc1ccccc1)C2 [Example 93, Benzyl 6-{1-[(4-hydroxyphenyl)(methyl)carbamoyl]-5,6,7,8-tetrahydroindolizin-3-yl}-7-[(3R)-3-methyl-1,2,3,4-tetrahydroisoquinoline-2-carbonyl]-1,2,3,4-tetrahydroisoquinoline-2-carboxylate] | 11 nM |  | 
6.4 nM | CN(C(=O)c1cc(-c2cc3c(cc2C(=O)N2Cc4ccccc4C[C@H]2CN2CCOCC2)CN(C(=O)COc2ccccc2)C3)n2ccccc12)c1ccc(O)cc1 [Example 166, N-(4-Hydroxyphenyl)-N-methyl-3-{6-[(3S)-3-(morpholin-4-ylmethyl)-1,2,3,4-tetrahydroisoquinoline-2-carbonyl]-2-(2-phenoxyacetyl)-2,3-dihydro-1H-isoindol-5-yl}indolizine-1-carboxamide] | 58 nM |  | 
